Test results as given in ChEMBL document CHEMBL4627372, “Spiroseoflosterol, a Rearranged Ergostane-Steroid from the Fruiting Bodies of Butyriboletus roseoflavus” (J Nat Prod, 2020).
The source made the active and inactive calls. No cut-off for these calls is given here.

How the values were obtained:
L02 = test: Cytotoxicity against human LO2 cells after 48 hrs by MTT assay; type: cell-based; conditions: L02, 48 h
HepG2 [1] = test: Cytotoxicity against human HepG2 cells after 48 hrs by MTT assay; type: functional, cell-based; conditions: HepG2, 48 h
[2] = Selectivity ratio of IC50 for human LO2 cells to IC50 for human HepG2 cells; type: toxicity; conditions: LO2 cells versus HepG2 cells, read-out: Ratio IC50
[3] = Cytotoxicity against human Huh7S1 cells after 48 hrs by MTT assay; type: functional, cell-based
[4] = Selectivity ratio of IC50 for human LO2 cells to IC50 for human Huh7S1 cells; type: toxicity; conditions: LO2 cells versus Huh7S1 cells, read-out: Ratio IC50
HepG2 [5] = test: Cytotoxicity against human HepG2 cells at 10 uM after 48 hrs by MTT assay; type: functional, cell-based

SMILES | IC50 (L02) | IC50 (HepG2 [1]) | selectivity ratio [2] | IC50 [3] | selectivity ratio [4] | Activity (HepG2 [5])
CC(C)[C@@H](C)/C=C/[C@@H](C)[C@H]1CC[C@H]2C(=O)[C@@]3(CC[C@]12C)[C@@H](O)C[C@H]1C[C@@H](O)CC[C@@]13C | 22.8 µM | 9.1 µM | 2.5 | 6.2 µM | 3.7 | –
CC(C)[C@@H](C)/C=C/[C@@H](C)[C@H]1CCC2=C3C=C[C@H]4C[C@@H](O)CC[C@]4(C)[C@H]3CC[C@@]21C | – | – | – | – | – | inactive
CNC(=O)c1cc(Oc2ccc(NC(=O)Nc3ccc(Cl)c(C(F)(F)F)c3)cc2)ccn1 [SORAFENIB] | 9.1 µM | 5.5 µM | 1.6 | – | – | –
